Test results published in the NIST ThermoML archive (doi:10.1016/j.jct.2014.01.030).

Assay: xn = mol fraction of the nth substance listed
Settings: 101 kPa, Liquid; for speed of sound: Sing-around technique in a fixed-path interferometer; for mass density: Vibrating tube method

CCn1cc[n+](C)c1.COS(=O)(=O)[O-] [1-ethyl-3-methylimidazolium methylsulfate] + CC(C)O
Settings | mass density, 288.15 K [kg/m3] | mass density, 298.15 K [kg/m3] | mass density, 308.15 K [kg/m3] | speed of sound, 288.15 K [m/s] | speed of sound, 298.15 K [m/s] | speed of sound, 308.15 K [m/s]
x2 = 0 | 1287.57 | 1280.81 | 1273.97 | 1781 | 1756 | 1732
x2 = 0.049 | 1277.61 | 1270.72 | 1263.87 | 1766 | 1741 | 1717
x2 = 0.101 | 1266.36 | 1259.44 | 1252.56 | 1749 | 1724 | 1700
x2 = 0.205 | 1240.88 | 1233.92 | 1227.01 | 1708 | 1683 | 1658
x2 = 0.307 | 1212.09 | 1205.09 | 1198.13 | 1659 | 1634 | 1609
x2 = 0.388 | 1185.23 | 1178.18 | 1171.15 | 1614 | 1588 | 1564
x2 = 0.505 | 1140.35 | 1133.21 | 1126.08 | 1541 | 1515 | 1490
x2 = 0.611 | 1091.15 | 1083.89 | 1076.62 | 1469 | 1443 | 1416
x2 = 0.705 | 1039.05 | 1031.61 | 1024.15 | 1402 | 1375 | 1348
x2 = 0.805 | 972.17 | 964.55 | 956.84 | 1326 | 1298 | 1269
x2 = 0.902 | 891.92 | 884.06 | 876.06 | 1252 | 1221 | 1190
x2 = 0.953 | 842.51 | 834.48 | 826.24 | 1214 | 1181 | 1148

CCn1cc[n+](C)c1.COS(=O)(=O)[O-] [1-ethyl-3-methylimidazolium methylsulfate] + CCC(C)O
Settings | mass density, 288.15 K [kg/m3] | mass density, 298.15 K [kg/m3] | mass density, 308.15 K [kg/m3] | speed of sound, 288.15 K [m/s] | speed of sound, 298.15 K [m/s] | speed of sound, 308.15 K [m/s]
x2 = 0 | 1287.57 | 1280.81 | 1273.97 | 1781 | 1756 | 1732
x2 = 0.054 | 1274.82 | 1267.9 | 1261.04 | 1762 | 1738 | 1714
x2 = 0.106 | 1261.26 | 1254.37 | 1247.52 | 1743 | 1718 | 1693
x2 = 0.204 | 1233.86 | 1226.94 | 1220.05 | 1698 | 1673 | 1649
x2 = 0.306 | 1201.1 | 1194.21 | 1187.37 | 1644 | 1619 | 1594
x2 = 0.405 | 1165.21 | 1158.22 | 1151.25 | 1587 | 1562 | 1536
x2 = 0.507 | 1122.93 | 1115.87 | 1108.83 | 1527 | 1501 | 1475
x2 = 0.608 | 1075.89 | 1068.69 | 1061.49 | 1467 | 1440 | 1414
x2 = 0.713 | 1019.51 | 1012.15 | 1004.76 | 1406 | 1378 | 1350
x2 = 0.801 | 964.94 | 957.44 | 949.85 | 1356 | 1326 | 1297
x2 = 0.905 | 890.81 | 883.1 | 875.21 | 1299 | 1267 | 1235
x2 = 0.948 | 856.61 | 848.81 | 840.73 | 1277 | 1244 | 1210

CCn1cc[n+](C)c1.COS(=O)(=O)[O-] [1-ethyl-3-methylimidazolium methylsulfate] + CCCCCO
Settings | mass density, 288.15 K [kg/m3] | mass density, 298.15 K [kg/m3] | mass density, 308.15 K [kg/m3] | speed of sound, 288.15 K [m/s] | speed of sound, 298.15 K [m/s] | speed of sound, 308.15 K [m/s]
x2 = 0 | 1287.57 | 1280.81 | 1273.97 | 1781 | 1756 | 1732
x2 = 0.057 | 1271.79 | 1264.9 | 1258.06 | 1759 | 1734 | 1710
x2 = 0.113 | 1255.1 | 1248.21 | 1241.74 | 1733 | 1708 | 1684
x2 = 0.216 | 1221.14 | 1214.5 | 1207.89 | 1678 | 1652 | 1628
x2 = 0.306 | 1188.62 | 1181.87 | 1175.24 | 1627 | 1600 | 1576
x2 = 0.404 | 1150.41 | 1143.48 | 1136.6 | 1569 | 1544 | 1519
x2 = 0.51 | 1104.6 | 1097.6 | 1090.68 | 1511 | 1485 | 1459
x2 = 0.608 | 1058.29 | 1051.16 | 1043.98 | 1463 | 1435 | 1408
x2 = 0.716 | 1001.72 | 994.56 | 987.39 | 1413 | 1385 | 1357
x2 = 0.801 | 952.72 | 945.38 | 938.08 | 1378 | 1349 | 1320
x2 = 0.9 | 889.67 | 882.45 | 875.19 | 1342 | 1311 | 1280
x2 = 0.956 | 851 | 843.78 | 836.48 | 1325 | 1292 | 1260

CCn1cc[n+](C)c1.COS(=O)(=O)[O-] [1-ethyl-3-methylimidazolium methylsulfate] + CCCO
Settings | mass density, 288.15 K [kg/m3] | mass density, 298.15 K [kg/m3] | mass density, 308.15 K [kg/m3] | speed of sound, 288.15 K [m/s] | speed of sound, 298.15 K [m/s] | speed of sound, 308.15 K [m/s]
x2 = 0 | 1287.57 | 1280.81 | 1273.97 | 1781 | 1756 | 1732
x2 = 0.055 | 1277.08 | 1270.16 | 1263.29 | 1765 | 1741 | 1717
x2 = 0.104 | 1266.71 | 1259.77 | 1252.89 | 1750 | 1725 | 1701
x2 = 0.21 | 1241.65 | 1234.68 | 1227.75 | 1712 | 1687 | 1662
x2 = 0.307 | 1215.18 | 1208.16 | 1201.19 | 1671 | 1645 | 1620
x2 = 0.414 | 1181.08 | 1174.01 | 1166.97 | 1617 | 1592 | 1567
x2 = 0.519 | 1141.11 | 1133.94 | 1126.8 | 1559 | 1533 | 1507
x2 = 0.62 | 1095.52 | 1088.26 | 1081.02 | 1498 | 1471 | 1445
x2 = 0.718 | 1042.21 | 1034.8 | 1027.38 | 1435 | 1407 | 1380
x2 = 0.81 | 981.73 | 974.16 | 966.57 | 1373 | 1344 | 1315
x2 = 0.907 | 903.61 | 895.88 | 888.1 | 1307 | 1276 | 1245
x2 = 0.954 | 858.4 | 850.58 | 842.66 | 1276 | 1243 | 1211

CCn1cc[n+](C)c1.COS(=O)(=O)[O-] [1-ethyl-3-methylimidazolium methylsulfate] + CCO
Settings | mass density, 288.15 K [kg/m3] | mass density, 298.15 K [kg/m3] | mass density, 308.15 K [kg/m3] | speed of sound, 288.15 K [m/s] | speed of sound, 298.15 K [m/s] | speed of sound, 308.15 K [m/s]
x2 = 0 | 1287.57 | 1280.81 | 1273.97 | 1781 | 1756 | 1732
x2 = 0.05 | – | 1273.01 | 1266.14 | – | 1744 | 1720
x2 = 0.0501 | 1279.94 | – | – | 1769 | – | –
x2 = 0.1018 | 1271.31 | – | – | 1756 | – | –
x2 = 0.102 | – | 1264.42 | 1257.55 | – | 1731 | 1707
x2 = 0.197 | – | 1246.51 | 1239.58 | – | 1704 | 1679
x2 = 0.1972 | 1253.48 | – | – | 1728 | – | –
x2 = 0.3098 | 1228.51 | – | – | 1690 | – | –
x2 = 0.31 | – | 1221.47 | 1214.47 | – | 1665 | 1640
x2 = 0.391 | – | 1199.39 | 1192.33 | – | 1630 | 1605
x2 = 0.3913 | 1206.5 | – | – | 1656 | – | –
x2 = 0.503 | 1170.26 | 1163.02 | 1155.75 | 1600 | 1574 | 1549
x2 = 0.6129 | 1125.74 | – | – | 1532 | – | –
x2 = 0.613 | – | 1118.41 | 1111.08 | – | 1506 | 1480
x2 = 0.703 | – | 1071.36 | 1063.86 | – | 1440 | 1413
x2 = 0.7031 | 1078.87 | – | – | 1467 | – | –
x2 = 0.8087 | 1007.23 | – | – | 1376 | – | –
x2 = 0.809 | – | 999.5 | 991.73 | – | 1348 | 1321
x2 = 0.901 | – | 914.27 | 906.19 | – | 1256 | 1226
x2 = 0.9011 | 922.29 | – | – | 1286 | – | –
x2 = 0.948 | – | 859.57 | 851.28 | – | 1206 | 1175
x2 = 0.9482 | 867.78 | – | – | 1238 | – | –

CCn1cc[n+](C)c1.COS(=O)(=O)[O-] [1-ethyl-3-methylimidazolium methylsulfate] + CO
Settings | mass density, 288.15 K [kg/m3] | mass density, 298.15 K [kg/m3] | mass density, 308.15 K [kg/m3] | speed of sound, 288.15 K [m/s] | speed of sound, 298.15 K [m/s] | speed of sound, 308.15 K [m/s]
x2 = 0 | 1287.57 | 1280.81 | 1273.97 | 1781 | 1756 | 1732
x2 = 0.0515 | 1282.18 | 1275.24 | 1268.37 | 1772 | 1748 | 1724
x2 = 0.1025 | 1276.36 | 1269.42 | 1262.52 | 1763 | 1739 | 1715
x2 = 0.1919 | 1265.13 | 1258.14 | 1251.2 | 1747 | 1722 | 1698
x2 = 0.3013 | 1247.5 | 1240.45 | 1233.43 | 1720 | 1695 | 1670
x2 = 0.4032 | 1227.98 | 1220.84 | 1213.74 | 1690 | 1665 | 1640
x2 = 0.5038 | 1203.27 | 1196.01 | 1188.8 | 1653 | 1628 | 1602
x2 = 0.604 | 1170.7 | 1163.31 | 1155.94 | 1605 | 1578 | 1553
x2 = 0.7023 | 1127.32 | 1119.71 | 1112.12 | 1541 | 1514 | 1487
x2 = 0.8003 | 1065.67 | 1057.76 | 1049.86 | 1452 | 1424 | 1397
x2 = 0.9049 | 962.26 | 953.82 | 945.37 | 1316 | 1286 | 1258
x2 = 0.9515 | 893.83 | 885.04 | 876.21 | 1237 | 1206 | 1176
